The values below come from PMC11426312 (Biochemistry, 2024).

Structures are written as SMILES.

The term IC50 denotes the concentration needed to halve the response being measured. Read a high IC50 as a need for much substance.

Test [1] addresses T1, AbHMPK (hydroxymethyl pyrimidine kinase / phosphomethylpyrimidine kinase) (Acinetobacter baumannii, UniProt A0A0J9X285). As to the kind of experiment: HPLC and LC-MS/MS of the enzymatic product. The format is biochemical.
In test [2] the target is T1, AbHMPK (hydroxymethyl pyrimidine kinase / phosphomethylpyrimidine kinase). As to the kind of experiment: X-ray crystal structure. The format is biochemical.

T1 sequence (A0A0J9X285 whole entry): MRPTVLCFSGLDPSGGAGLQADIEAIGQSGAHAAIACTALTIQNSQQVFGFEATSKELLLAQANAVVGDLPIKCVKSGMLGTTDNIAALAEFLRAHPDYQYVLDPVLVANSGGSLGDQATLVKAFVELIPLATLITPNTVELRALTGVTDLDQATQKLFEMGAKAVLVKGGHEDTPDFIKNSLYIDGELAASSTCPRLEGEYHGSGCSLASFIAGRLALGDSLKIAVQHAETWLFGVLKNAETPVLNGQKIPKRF

For the compound `Cc1ncc(COP(=O)(O)O)c(N)n1` [HMP-P], in test [1], the “HPLC and LC-MS/MS of the enzymatic product” value is “the mass spectrometry analysis all confirm that this single product is HMP-P”. In test [2], `Cc1ncc(COP(=O)(O)O)c(C=O)c1O` [PLP, 4-Formyl-5-hydroxy-6-methylpyridin-3-yl) methyl dihydrogen phosphate] showed an IC50 of 768 µM.
